Tested on: IgE production against ovalbumin (OVA)
Test: Suppressive effect on the IgE production against ovalbumin (OVA); anti-OVA IgE antibody titer (PCA titer)
Assay type: in vivo
Conditions: BALB/c mice immunized with OVA; oral dose 40 mg/kg for 10 days; titer = n where serum PCA-positive till 2^n dilution
Description: Suppressive Effect on the IgE Production Against Ovalbumin (OVA)
BALB/c mice (female, 8-10 weeks old) and Wistar rats (female, 8-10 weeks old) which were bought from Japan SLC, Inc. (Shizuoka) were used.
BALB/c mice were immunized by an intraperitoneal administration of 0.2 ml suspension of 2 μg of ovalbumin (OVA) and 2 mg of aluminium hydroxide gel in physiological saline. After 10 days, blood was collected from hearts, then sera were separated and stocked at −40° C. till the measurement of IgE antibody titer.
After the compound of the present invention was dissolved or suspended in N,N-dimethylacetoamide, the mixture was diluted 20 times with miglyol 812 neutral oil. The obtained solution was orally administered to mice at 0.1 ml per mouse (dose 40 mg/kg). The administration was continued for 10 days from the immunizing day to the day before the blood collection.
4) Mesurement of Anti-OVA IgE Antibody Titer (PCA Titer)
The obtained mouse serum was 2-fold diluted with physiological saline, then each 50 μl the solution was intradermally injected at dorsal skin of Wistar rats which previously hair cut. […] The rats were sacrified 30 minutes later and the highest dilution giving bluing with a diameter of 5 mm or more was recorded as the PCA titer. […]

`Cc1c(C)c(-c2ccc(NC(C)C)nc2)c(C)c(C)c1-c1ccc(NC(C)C)nc1` [Compound 169] was tested, and the “PCA (anti-OVA IgE antibody titer, PCA titer)” value was <0.

Source: patent publication US20040087604A1, “Hetero-tricyclic compounds having substituted amino groups” (priority 2001, published 2004)
